From patent publication US11014912B2, “Cyanopyrrolidine derivatives with activity as inhibitors of USP30” (MISSION THERAPEUTICS LIMITED, priority 2016, dated 2021) come the findings set out here.

USP30, sequence (Q70CQ3 57-517): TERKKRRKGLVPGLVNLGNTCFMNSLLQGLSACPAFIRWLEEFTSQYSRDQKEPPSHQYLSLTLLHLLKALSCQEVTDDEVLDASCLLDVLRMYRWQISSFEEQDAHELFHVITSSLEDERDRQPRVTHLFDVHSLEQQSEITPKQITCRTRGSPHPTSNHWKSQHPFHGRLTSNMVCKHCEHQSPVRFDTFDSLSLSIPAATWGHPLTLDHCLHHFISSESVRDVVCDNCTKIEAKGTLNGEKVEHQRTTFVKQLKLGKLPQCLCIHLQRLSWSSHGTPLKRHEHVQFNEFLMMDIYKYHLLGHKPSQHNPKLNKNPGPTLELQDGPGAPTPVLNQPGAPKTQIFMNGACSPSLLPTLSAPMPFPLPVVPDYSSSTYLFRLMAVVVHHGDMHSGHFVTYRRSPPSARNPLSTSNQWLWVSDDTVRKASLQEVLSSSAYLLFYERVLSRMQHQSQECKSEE

This test addresses USP30 (Homo sapiens (Human), UniProt Q70CQ3). The test can be described thus: USP30 biochemical IC50 assay. The following applies: fluorescence polarisation, TAMRA labelled peptide linked to ubiquitin substrate; enzyme and compound incubated 30 min at room temp; read after 2 h; read-out: IC50 range. Here is the method:
USP30 Biochemical IC50 Assay
Dilution plates were prepared at 21 times the final concentration (2100 μM for a final concentration of 100 μM) in 50% DMSO in a 96-well polypropylene V-bottom plate (Greiner #651201). A typical 8-point dilution series would be 100, 30, 10, 3, 1, 0.3, 0.1, 0.03 μM final. Reactions were performed in duplicate in black 384 well plates (small volume, Greiner 784076) in a final reaction volume of 21 μl. Either 1 μl of 50% DMSO or diluted compound was added to the plate. USP30 was diluted in reaction buffer (40 mM Tris, pH 7.5, 0.005% Tween 20, 0.5 mg/ml BSA, 5 mM beta-mercaptoethanol) to the equivalent of 0.05 μl/well and 10 μl of diluted USP30 was added to the compound. Enzyme and compound were incubated for 30 min at room temp. Reactions were initiated by the addition of 50 nM of TAMRA labelled peptide linked to ubiquitin via an iso-peptide bond as fluorescence polarisation substrate. Reactions were read immediately after addition of substrate and following a 2 h incubation at room temperature. Readings were performed on a Pherastar Plus (BMG Labtech). A Excitation 540 nm; A Emission 590 nm.
Background: Polarisation of emitted light reports the rotation of a fluorescent probe.
Turning to `N#CN1CCC(CC(=O)Nc2ncc(-c3ccccc3)s2)C1` (centres unmarked) [Example 10, 2-(1-Cyanopyrrolidin-3-yl)-N-(5-phenylthiazol-2-yl)acetamide], the IC50 (as a rule, the concentration at which inhibition is half-maximal) is 100 to 1000 nM. Consider `N#CN1CCC(CC(=O)Nc2cccc(Cl)c2)C1` (centres unmarked) [Example 2, N-(3-Chlorophenyl)-2-(1-cyanopyrrolidin-3-yl)acetamide], for which the IC50 was in the range of 100 to 1000 nM. For the compound `N#CN1CC[C@@H](CC(=O)Nc2cc(-c3cccc(Cl)c3)no2)C1` [Example 42, (S)-N-(3-(3-chlorophenyl)isoxazol-5-yl)-2-(1-cyanopyrrolidin-3-yl)acetamide], the IC50 fell in the range of 10 to 100 nM. The value for `COc1cccc(-c2cc(NC(=O)C[C@@H]3CCN(C#N)C3)on2)c1` [Example 37, (S)—N-(3-(3-Methoxyphenyl)isoxazol-5-yl)-2-(1-cyanopyrrolidin-3-yl)acetamide] was 100 to 1000 nM; that for `N#CN1CCC(=CC(=O)N2CC(c3ccccc3)C2)C1` [Example 18, 3-(2-Oxo-2-(3-phenylazetidin-1-yl)ethylidene)pyrrolidine-1-carbonitrile] was 100 to 1000 nM; that for `COc1cccc(C2CN(C(=O)C[C@@H]3CCN(C#N)C3)C2)c1F` [Example 68, (S)-3-(2-(3-(2-fluoro-3-methoxyphenyl)azetidin-1-yl)-2-oxoethyl)pyrrolidine-1-carbonitrile] was 10 to 100 nM. Take `N#CN1CCC(CC(=O)Nc2nc3cc(Cl)ccc3o2)C1` (centres unmarked) [Example 8, N-(5-Chlorobenzo[d]oxazol-2-yl)-2-(1-cyanopyrrolidin-3-yl)acetamide]: the IC50 is 100 to 1000 nM.

As for `CN(Cc1ccc2ncccc2c1)C(=O)C=C1CCN(C#N)C1` [Example 24, 2-(1-Cyanopyrrolidin-3-ylidene)-N-methyl-N-(quinolin-6-ylmethyl)acetamide], the 50% inhibitory concentration (IC50) was 100 to 1000 nM. Consider `COc1cccc(-c2cc(NC(=O)C[C@H]3CCN(C#N)C3)on2)c1` [Example 43, (R)-2-(1-cyanopyrrolidin-3-yl)-N-(3-(3-methoxyphenyl)isoxazol-5-yl)acetamide], for which the IC50 lay in the range of 10 to 100 nM. The value for `N#CN1CC[C@H](CC(=O)Nc2cc(-c3ccc(Cl)cc3)no2)C1` [Example 35, (R)—N-(3-(4-Chlorophenyl)isoxazol-5-yl)-2-(1-cyanopyrrolidin-3-yl)acetamide] was 100 to 1000 nM. As to `CN(Cc1cc(-c2ccccc2)no1)C(=O)C=C1CCN(C#N)C1` [Example 27, 2-(1-Cyanopyrrolidin-3-ylidene)-N-methyl-N-((3-phenylisoxazol-5-yl)methyl)acetamide], the IC50 is 100 to 1000 nM. The value for `CN(Cc1cc(-c2ccccc2)[nH]n1)C(=O)C=C1CCN(C#N)C1` [Example 30, 2-(1-Cyanopyrrolidin-3-ylidene)-N-methyl-N-((5-phenyl-1H-pyrazol-3-yl)methyl)acetamide] was 100 to 1000 nM; that for `Cc1cc(C2CN(C(=O)C[C@@H]3CCN(C#N)C3)C2)ccc1C#N` [Example 59, (S)-3-(2-(3-(4-cyano-3-methylphenyl)azetidin-1-yl)-2-oxoethyl)pyrrolidine-1-carbonitrile] was 10 to 100 nM; that for `N#CN1CCC(=CC(=O)Nc2ccc3ncsc3c2)C1` [Example 21, N-(Benzo[d]thiazol-6-yl)-2-(1-cyanopyrrolidin-3-ylidene)acetamide] was 1000 to 10000 nM. Regarding `Cc1ccc(NC(=O)C=C2CCN(C#N)C2)cc1Cl` [Example 19, N-(3-Chloro-4-methylphenyl)-2-(1-cyanopyrrolidin-3-ylidene)acetamide], the IC50 lay in the range of 100 to 1000 nM. On to `Cc1cc(C2CN(C(=O)CC3CCN(C#N)C3)C2)ccn1` (centres unmarked) [Example 15, 3-(2-(3-(2-Methylpyridin-4-yl)azetidin-1-yl)-2-oxoethyl)pyrrolidine-1-carbonitrile], for which the IC50 is 1000 to 10000 nM.

`C[C@H](C(=O)Nc1cc(-c2cccc(Cl)c2)no1)[C@@H]1CCN(C#N)C1` [Example 50, (S)-N-(3-(3-chlorophenyl)isoxazol-5-yl)-2-((S)-1-cyanopyrrolidin-3-yl)propanamide]: the IC50 fell in the range of 1 to 10 nM. With `N#CN1CC[C@@H](CC(=O)Nc2nnc(-c3ccccc3)s2)C1` [Example 64, (S)-2-(1-cyanopyrrolidin-3-yl)-N-(5-phenyl-1,3,4-thiadiazol-2-yl)acetamide], the IC50 fell in the range of 100 to 1000 nM. As for `N#CN1CC[C@@H](CC(=O)Nc2nnc(-c3cccc(Cl)c3)o2)C1` [Example 48, (S)-N-(5-(3-chlorophenyl)-1,3,4-oxadiazol-2-yl)-2-(1-cyanopyrrolidin-3-yl)acetamide], the IC50 was in the range of 100 to 1000 nM. In the case of `CN(Cc1cccc(-c2ccncc2)c1)C(=O)C=C1CCN(C#N)C1` [Example 26, 2-(1-Cyanopyrrolidin-3-ylidene)-N-methyl-N-(3-(pyridin-4-yl)benzyl)acetamide] it was 100 to 1000 nM; in that of `COc1ccc(C2CN(C(=O)C[C@@H]3CCN(C#N)C3)C2)cc1-c1ccn[nH]1` [Example 39, (S)-3-(2-(3-(4-Methoxy-3-(1H-pyrazol-5-yl)phenyl)azetidin-1-yl)-2-oxoethyl)pyrrolidine-1-carbonitrile], 10 to 100 nM; in that of `N#CN1CCC(CC(=O)NC2CN(c3ccccn3)C2)C1` (centres unmarked) [Example 47, 2-(1-cyanopyrrolidin-3-yl)-N-(1-(pyridin-2-yl)azetidin-3-yl)acetamide], 100 to 1000 nM. As for `N#CN1CCC(=CC(=O)Nc2ccc(Oc3ccccc3)cc2)C1` [Example 22, 2-(1-Cyanopyrrolidin-3-ylidene)-N-(4-phenoxyphenyl)acetamide], the IC50 lay within 10 to 100 nM.

Consider `N#CN1CCC(CC(=O)NCCc2ccccc2)C1` (centres unmarked) [Example 11, 2-(1-Cyanopyrrolidin-3-yl)-N-phenethylacetamide], for which the IC50 lay in the range of 1000 to 10000 nM. Consider `N#CN1CCC(=CC(=O)NCc2cc(C(F)(F)F)ccc2F)C1` [Example 31, 2-(1-Cyanopyrrolidin-3-ylidene)-N-(2-fluoro-5-(trifluoromethyl)benzyl)acetamide], for which the IC50 lay in the range of 1000 to 10000 nM. With `N#CN1CCC(CC(=O)Nc2cc(C(F)(F)F)ccn2)C1` (centres unmarked) [Example 45, 2-(1-cyanopyrrolidin-3-yl)-N-(4-(trifluoromethyl)pyridin-2-yl)acetamide], the IC50 lay in the range of 100 to 1000 nM.
